Test results: patent US20180256611A1, “BISPHOSPHONATES FOR INCREASING THE TYPE 2 CHARACTER OF A MODIC CHANGE” (ANTECIP BIOVENTURES II LLC, priority 2017, published 2018)
“And” between values parts separate entries of the source, which are not always exact repeats. Identical values can stand only once.

System: Modic changes (MC) on MRI in chronic LBP patients
Assay: MRI study of size and type of Modic changes over one year after a single intravenous infusion of 5 mg zoledronic acid vs placebo
Type: in vivo, human
Procedure: This study was designed to compare changes in size and type of MC over one year after a single intravenous infusion of 5 mg zoledronic acid (ZA) vs placebo among chronic LBP patients with MC on MRI, and evaluate whether MRI changes correlate with improvement in clinical symptoms.
The study population consisted of patients with chronic LBP and MC on MRI. Inclusion criteria were LBP for at least three months, LBP intensity of at least six on a 10-cm Visual Analog Scale (VAS) or Oswestry Disability Index (ODI) of at least 30%, and a MC on MRI performed within at most six months prior to enrollment. The exclusion criteria included renal impairment, hypocalcaemia, hypersensitivity to bisphosphonates or the infusion, the presence of red flags, nerve root entrapment, willingness for early retirement, and childbearing potential.
All patients (N=20 in both intervention groups) had MRI at baseline (0.23-1.5 T) and one year (1.5-3 T). We evaluated the level, type, volume (cm^3) and proportion of M1 and M2 of all MC. MC were classified to pure M1 (M1 (100%)), mixed M1/2 with predominating M1 (M1/2 (65:35%)) or predominating M2 (M1/2 (35:65%)), and pure M2 (M2 (100%)). The first two were considered M1-dominant, and the latter two M2-dominant. Volumes of M1 and M2 were calculated separately for the primary MC, assumed to cause the symptoms, and for other MC. Cross tabulations were used to describe the distributions of MC type in ZA and placebo groups at baseline and one year. The treatment differences in M1 and M2 volumes, from baseline to one year, were analyzed using ANCOVA with adjustments for age, sex, body mass index and smoking. The correlations of MRI changes with changes in intensity of LBP (10-cm Visual Analog Scale) and Oswestry Disability Index (ODI) were analyzed using Pearson correlations.
Patients were randomized to receive a single intravenous infusion of 5 mg ZA in 100 ml saline (n=20) or 100 ml saline as placebo (n=20) over a 15-minute period. Before administration of the infusion, all patients received oral ibuprofen 600 mg or paracetamol 1 g to prevent acute phase reactions, and 100 000 units of Vitamin D (Vigantol®) to prevent hypocalcaemia. Patients, the principal investigator, performing the screening and follow-up assessments, and the radiologist evaluating the MRI scans were blinded to the treatment allocation.
Baseline MRIs were obtained with five 1.5 T units and a 0.23 T unit. There was some variation in imaging protocols due to the multiple units used. Protocols were of clinical imaging purpose established to spine imaging. The imaging parameters of sagittal T1-weighted (T1W) turbo spin-echo (TSE) or fast spin-echo (FSE) sequences with fluid attenuation inversion recovery (FLAIR) were repetition time (TR) 1800-2270 ms/inversion time (TI) 860 ms/echo time (TE) 9-29 ms (N=16) and without FLAIR: TR 326-793 ms/TE 8-18 ms (N=23). The imaging parameters of sagittal T2-weighted (T2W) TSE/FSE sequences were TR 3000-4500 ms/TE 105-130 ms (N=40). The imaging parameters of short tau inversion recovery sequences (STIR) were e.g. TR 3400/TI 150/TE 70. Spacing, including slice thickness and slice gap, of the image slices was 4.4-6.2 mm in all sequences.
At the one-year follow-up, MRIs were obtained with two 1.5 T units and a 3 T unit. The imaging parameters of sagittal T1-weighted TSE or FSE sequences with FLAIR were TR 2047-2270 ms/TI 860-900 ms/TE 9-29 ms (N=38) and without FLAIR: TR 540-587/TE 12-24 ms (N=2). The imaging parameters of sagittal T2-weighted TSE or FSE sequences were TR 2796-3500 ms/TE 101-123 ms (N=40). Spacing was 3.6-5 mm in all sequences.

[1] = ZA vs placebo, change to follow-up

## O=P(O)(O)C(O)(Cn1ccnc1)P(=O)(O)O [ZA, zoledronic acid]
ZA vs placebo
  Total volume of other than the primary Modic lesion, difference (95% CI), unadjusted: −0.21 (−1.28, 0.86) cm^3
  Volume of M1 of other than the primary Modic lesion, difference (95% CI), unadjusted: −0.17 (−2.12, 1.78) cm^3
  Volume of M2 of other than the primary Modic lesion, difference (95% CI), unadjusted: −0.04 (−1.99, 1.90) cm^3
[1]
  Total volume of the primary Modic lesion, difference (95% CI), adjusted for age, sex, BMI and smoking: −1.64 (−4.03, 0.76) cm^3
  Total volume of the primary Modic lesion, difference (95% CI), age-adjusted analysis: −1.46 (−3.50, 0.59) cm^3
  Volume of M1 of the primary Modic lesion, difference (95% CI), age-adjusted analysis: −1.92 (−4.65, 0.82) cm^3
  Volume of M2 of the primary Modic lesion, difference (95% CI), adjusted for age, sex, BMI and smoking: 0.12 cm^3 and 0.12 (−2.50, 2.75) cm^3
  Volume of M2 of the primary Modic lesion, difference (95% CI), age-adjusted analysis: 0.46 (−1.90, 2.82) cm^3
At baseline, placebo 22%
  Proportion of M1 volume of the total volume, other than primary MC: 13%
At one year, placebo 36%
  Proportion of M1 volume of the total volume, other than primary MC: 24%
baseline
  Total volume of other than the primary Modic lesion, mean (SD): 7.53 (7.53) cm^3
  Total volume of the primary Modic lesion, mean (SD): 12.0 cm^3 and 11.99 (5.14) cm^3
  Volume of M2 of other than the primary Modic lesion, mean (SD): 6.52 (7.63) cm^3
  Volume of M2 of the primary Modic lesion, mean (SD): 4.54 (3.90) cm^3
Baseline to follow-up
  Total volume of other than the primary Modic lesion, mean (SD) change: 0.39 (1.02) cm^3
  Volume of M1 of other than the primary Modic lesion, mean (SD) change: 0.86 (2.19) cm^3
  Volume of M2 of other than the primary Modic lesion, mean (SD) change: −0.47 (2.44) cm^3
Baseline to one year, placebo 11%
  Total volume of other than primary MC increased by: 5%
Baseline to one year, placebo 34%
  M2 volume of primary MC increased by: 56%
Baseline to one year, placebo increased by 18%
  M1 volume of primary MC decreased by: 13%
Baseline to one-year follow-up
  Total volume of the primary Modic lesion, mean (SD) change: 1.6 cm^3 and 1.58 (2.18) cm^3
  Volume of M1 of the primary Modic lesion, mean (SD) change: −0.96 cm^3 and −0.96 (4.33) cm^3
  Volume of M2 of the primary Modic lesion, mean (SD) change: 2.54 cm^3 and 2.54 (2.94) cm^3
baseline, n=17
  Volume of M1 of other than the primary Modic lesion, mean (SD): 1.02 (1.90) cm^3
baseline, n=20
  Volume of M1 of the primary Modic lesion, mean (SD): 7.44 (4.47) cm^3
follow-up
  Total volume of other than the primary Modic lesion, mean (SD): 7.92 (7.31) cm^3
  Volume of M1 of other than the primary Modic lesion, mean (SD): 1.88 (2.47) cm^3
  Volume of M2 of other than the primary Modic lesion, mean (SD): 6.05 (6.43) cm^3
follow-up (one year)
  Total volume of the primary Modic lesion, mean (SD): 13.57 (5.42) cm^3
  Volume of M1 of the primary Modic lesion, mean (SD): 6.48 (5.25) cm^3
  Volume of M2 of the primary Modic lesion, mean (SD): 7.09 (4.50) cm^3
one-year follow-up, placebo 15% (p=0.087)
  M1-dominant primary MC converted to M2-dominant: 45%
